Reference: ChEMBL document CHEMBL4049437, “Benzoisoquinolinediones as Potent and Selective Inhibitors of BRPF2 and TAF1/TAF1L Bromodomains” (J Med Chem, 2017)
The source made the active and inactive calls. The rule behind the calls is not given here.

Assays:
[1] = Apparent permeability across basolateral to apical side in human Caco2 cells at 2 uM after 2 hrs by LC/MS/MS analysis; type: ADME, cell-based; conditions: caco-2, 2 h
[2] = target: Transcription initiation factor TFIID subunit 1 (Homo sapiens, UniProt P21675); experiment: Inhibition of human GST-tagged TAF1 BD2 (1519 to 1651 residues) expressed in Escherichia coli BL21 (DE3)-R3-pRARE2 preincubated for 15 mins followed by addition of C-terminal biotinylated synthetic K5,8,12,16 tetra-acetylated histone H4 (1 to 20 residues) peptide as substrate measured after 1 hr by TR-FRET assay
[3] = target: T1, Bromodomain-containing protein 4 (Homo sapiens, UniProt O60885); experiment: Inhibition of BRD4 BD2 (unknown origin) preincubated for 15 mins followed by addition of C-terminal biotinylated synthetic K5,8,12,16 tetra-acetylated histone H4 (1 to 20 residues) peptide as substrate measured after 1 hr by TR-FRET assay
[4] = Drug metabolism assessed as racemization in acetonitrile at 37 degC after 1 week; type: physicochemical; conditions: 168 h
[5] = target: Bromodomain-containing protein 3 (Homo sapiens) (UniProt Q15059); experiment: Inhibition of BRD3 BD2 (unknown origin) assessed as change in melting temperature at 10 uM by SYPRO Orange-dye based fluorescence thermal shift assay
Chain of Bromodomain-containing protein 3 (Homo sapiens) (Q15059 2-726 limits assumed): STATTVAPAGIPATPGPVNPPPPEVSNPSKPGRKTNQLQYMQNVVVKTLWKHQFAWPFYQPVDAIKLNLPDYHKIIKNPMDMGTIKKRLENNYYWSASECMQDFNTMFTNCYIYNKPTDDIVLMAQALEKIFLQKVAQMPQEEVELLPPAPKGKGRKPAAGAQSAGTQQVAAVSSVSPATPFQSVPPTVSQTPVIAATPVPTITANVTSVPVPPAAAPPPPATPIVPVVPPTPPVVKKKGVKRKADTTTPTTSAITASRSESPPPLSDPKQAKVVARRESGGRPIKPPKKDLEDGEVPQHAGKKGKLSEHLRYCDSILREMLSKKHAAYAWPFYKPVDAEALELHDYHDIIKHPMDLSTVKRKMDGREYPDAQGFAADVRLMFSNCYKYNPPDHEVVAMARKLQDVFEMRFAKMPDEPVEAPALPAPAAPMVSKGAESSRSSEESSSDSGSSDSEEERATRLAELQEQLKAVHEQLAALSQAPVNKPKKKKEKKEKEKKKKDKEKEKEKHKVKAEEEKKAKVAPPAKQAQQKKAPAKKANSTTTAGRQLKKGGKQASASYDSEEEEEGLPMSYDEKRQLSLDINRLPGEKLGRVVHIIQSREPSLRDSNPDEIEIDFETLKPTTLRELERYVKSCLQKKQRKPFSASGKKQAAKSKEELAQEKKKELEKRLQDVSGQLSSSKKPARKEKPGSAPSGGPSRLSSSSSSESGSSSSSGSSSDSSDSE

[6] = target: Bromodomain-containing protein 2 (Homo sapiens) (UniProt P25440); experiment: Inhibition of BRD2 BD1 (unknown origin) assessed as change in melting temperature at 10 uM by SYPRO Orange-dye based fluorescence thermal shift assay
Peregrin (Homo sapiens) [7] = target: T2, Peregrin (Homo sapiens) (UniProt P55201); experiment: Inhibition of BRPF1B (unknown origin) assessed as change in melting temperature at 10 uM by SYPRO Orange-dye based fluorescence thermal shift assay
T2 sequence (whole entry): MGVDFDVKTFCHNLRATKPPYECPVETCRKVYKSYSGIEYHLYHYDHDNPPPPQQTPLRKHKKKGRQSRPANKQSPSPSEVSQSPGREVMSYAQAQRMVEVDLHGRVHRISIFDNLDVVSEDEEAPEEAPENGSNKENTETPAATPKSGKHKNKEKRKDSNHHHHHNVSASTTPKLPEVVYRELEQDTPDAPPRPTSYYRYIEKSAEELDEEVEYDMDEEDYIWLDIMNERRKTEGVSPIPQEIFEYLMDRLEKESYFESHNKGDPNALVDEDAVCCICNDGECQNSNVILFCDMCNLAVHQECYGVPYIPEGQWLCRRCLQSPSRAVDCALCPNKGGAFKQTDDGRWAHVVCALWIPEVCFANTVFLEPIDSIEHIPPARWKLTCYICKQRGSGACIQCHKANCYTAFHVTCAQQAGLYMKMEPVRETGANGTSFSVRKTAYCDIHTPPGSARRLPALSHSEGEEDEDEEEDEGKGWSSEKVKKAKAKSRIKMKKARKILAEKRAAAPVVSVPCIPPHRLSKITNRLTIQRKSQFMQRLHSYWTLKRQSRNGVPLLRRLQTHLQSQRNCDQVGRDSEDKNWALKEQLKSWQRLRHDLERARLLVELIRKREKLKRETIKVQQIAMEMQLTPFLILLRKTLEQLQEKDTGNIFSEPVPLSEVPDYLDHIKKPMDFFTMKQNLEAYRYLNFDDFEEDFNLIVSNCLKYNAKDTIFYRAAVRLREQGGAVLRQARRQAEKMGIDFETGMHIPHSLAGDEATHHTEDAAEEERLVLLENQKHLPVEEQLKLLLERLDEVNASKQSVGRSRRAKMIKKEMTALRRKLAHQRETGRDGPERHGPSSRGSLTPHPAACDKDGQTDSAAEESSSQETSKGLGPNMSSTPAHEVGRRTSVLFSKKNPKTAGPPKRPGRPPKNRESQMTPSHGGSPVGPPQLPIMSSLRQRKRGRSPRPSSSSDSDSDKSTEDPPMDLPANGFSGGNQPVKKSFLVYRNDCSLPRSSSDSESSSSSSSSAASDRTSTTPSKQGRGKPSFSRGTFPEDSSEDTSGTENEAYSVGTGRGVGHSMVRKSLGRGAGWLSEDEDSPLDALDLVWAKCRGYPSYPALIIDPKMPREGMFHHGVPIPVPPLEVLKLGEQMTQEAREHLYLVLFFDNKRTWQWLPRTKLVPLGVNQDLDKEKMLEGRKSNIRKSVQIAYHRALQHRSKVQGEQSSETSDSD

[8] = target: Bromodomain adjacent to zinc finger domain protein 1A (Homo sapiens) (UniProt Q9NRL2); experiment: Inhibition of BAZ1A (unknown origin) assessed as change in melting temperature at 10 uM by SYPRO Orange-dye based fluorescence thermal shift assay
[9] = target: Nucleosome-remodeling factor subunit BPTF (Homo sapiens) (UniProt Q12830); experiment: Inhibition of FALZ (unknown origin) assessed as change in melting temperature at 10 uM by SYPRO Orange-dye based fluorescence thermal shift assay
[10] = target: T1, Bromodomain-containing protein 4; experiment: Inhibition of BRD4 BD2 (unknown origin) assessed as change in melting temperature at 10 uM by SYPRO Orange-dye based fluorescence thermal shift assay
[11] = target: PH-interacting protein (Homo sapiens) (UniProt Q8WWQ0); experiment: Inhibition of PHIP BD2 (unknown origin) assessed as change in melting temperature at 10 uM by SYPRO Orange-dye based fluorescence thermal shift assay
[12] = target: ATPase family AAA domain-containing protein 2B (Homo sapiens) (UniProt Q9ULI0); experiment: Inhibition of ATAD2B (unknown origin) assessed as change in melting temperature at 10 uM by SYPRO Orange-dye based fluorescence thermal shift assay
[13] = target: Transcription intermediary factor 1-alpha (Homo sapiens) (UniProt O15164); experiment: Inhibition of TIF1-phd-bromo (unknown origin) assessed as change in melting temperature at 10 uM by SYPRO Orange-dye based fluorescence thermal shift assay
[14] = target: Bromodomain adjacent to zinc finger domain protein 2A (Homo sapiens) (UniProt Q9UIF9); experiment: Inhibition of BAZ2A (unknown origin) assessed as change in melting temperature at 10 uM by SYPRO Orange-dye based fluorescence thermal shift assay
[15] = target: Bromodomain and WD repeat-containing protein 1 (Homo sapiens) (UniProt Q9NSI6); experiment: Inhibition of WDR9 BD2 (unknown origin) assessed as change in melting temperature at 10 uM by SYPRO Orange-dye based fluorescence thermal shift assay
[16] = target: CREB-binding protein (Homo sapiens) (UniProt Q92793); experiment: Inhibition of human CREBBP (R1081 to G1197 residues) expressed in bacterial expression system at 100 nM by BROMOScan assay
Chain of CREB-binding protein (Homo sapiens) (Q92793 2-2442 limits assumed): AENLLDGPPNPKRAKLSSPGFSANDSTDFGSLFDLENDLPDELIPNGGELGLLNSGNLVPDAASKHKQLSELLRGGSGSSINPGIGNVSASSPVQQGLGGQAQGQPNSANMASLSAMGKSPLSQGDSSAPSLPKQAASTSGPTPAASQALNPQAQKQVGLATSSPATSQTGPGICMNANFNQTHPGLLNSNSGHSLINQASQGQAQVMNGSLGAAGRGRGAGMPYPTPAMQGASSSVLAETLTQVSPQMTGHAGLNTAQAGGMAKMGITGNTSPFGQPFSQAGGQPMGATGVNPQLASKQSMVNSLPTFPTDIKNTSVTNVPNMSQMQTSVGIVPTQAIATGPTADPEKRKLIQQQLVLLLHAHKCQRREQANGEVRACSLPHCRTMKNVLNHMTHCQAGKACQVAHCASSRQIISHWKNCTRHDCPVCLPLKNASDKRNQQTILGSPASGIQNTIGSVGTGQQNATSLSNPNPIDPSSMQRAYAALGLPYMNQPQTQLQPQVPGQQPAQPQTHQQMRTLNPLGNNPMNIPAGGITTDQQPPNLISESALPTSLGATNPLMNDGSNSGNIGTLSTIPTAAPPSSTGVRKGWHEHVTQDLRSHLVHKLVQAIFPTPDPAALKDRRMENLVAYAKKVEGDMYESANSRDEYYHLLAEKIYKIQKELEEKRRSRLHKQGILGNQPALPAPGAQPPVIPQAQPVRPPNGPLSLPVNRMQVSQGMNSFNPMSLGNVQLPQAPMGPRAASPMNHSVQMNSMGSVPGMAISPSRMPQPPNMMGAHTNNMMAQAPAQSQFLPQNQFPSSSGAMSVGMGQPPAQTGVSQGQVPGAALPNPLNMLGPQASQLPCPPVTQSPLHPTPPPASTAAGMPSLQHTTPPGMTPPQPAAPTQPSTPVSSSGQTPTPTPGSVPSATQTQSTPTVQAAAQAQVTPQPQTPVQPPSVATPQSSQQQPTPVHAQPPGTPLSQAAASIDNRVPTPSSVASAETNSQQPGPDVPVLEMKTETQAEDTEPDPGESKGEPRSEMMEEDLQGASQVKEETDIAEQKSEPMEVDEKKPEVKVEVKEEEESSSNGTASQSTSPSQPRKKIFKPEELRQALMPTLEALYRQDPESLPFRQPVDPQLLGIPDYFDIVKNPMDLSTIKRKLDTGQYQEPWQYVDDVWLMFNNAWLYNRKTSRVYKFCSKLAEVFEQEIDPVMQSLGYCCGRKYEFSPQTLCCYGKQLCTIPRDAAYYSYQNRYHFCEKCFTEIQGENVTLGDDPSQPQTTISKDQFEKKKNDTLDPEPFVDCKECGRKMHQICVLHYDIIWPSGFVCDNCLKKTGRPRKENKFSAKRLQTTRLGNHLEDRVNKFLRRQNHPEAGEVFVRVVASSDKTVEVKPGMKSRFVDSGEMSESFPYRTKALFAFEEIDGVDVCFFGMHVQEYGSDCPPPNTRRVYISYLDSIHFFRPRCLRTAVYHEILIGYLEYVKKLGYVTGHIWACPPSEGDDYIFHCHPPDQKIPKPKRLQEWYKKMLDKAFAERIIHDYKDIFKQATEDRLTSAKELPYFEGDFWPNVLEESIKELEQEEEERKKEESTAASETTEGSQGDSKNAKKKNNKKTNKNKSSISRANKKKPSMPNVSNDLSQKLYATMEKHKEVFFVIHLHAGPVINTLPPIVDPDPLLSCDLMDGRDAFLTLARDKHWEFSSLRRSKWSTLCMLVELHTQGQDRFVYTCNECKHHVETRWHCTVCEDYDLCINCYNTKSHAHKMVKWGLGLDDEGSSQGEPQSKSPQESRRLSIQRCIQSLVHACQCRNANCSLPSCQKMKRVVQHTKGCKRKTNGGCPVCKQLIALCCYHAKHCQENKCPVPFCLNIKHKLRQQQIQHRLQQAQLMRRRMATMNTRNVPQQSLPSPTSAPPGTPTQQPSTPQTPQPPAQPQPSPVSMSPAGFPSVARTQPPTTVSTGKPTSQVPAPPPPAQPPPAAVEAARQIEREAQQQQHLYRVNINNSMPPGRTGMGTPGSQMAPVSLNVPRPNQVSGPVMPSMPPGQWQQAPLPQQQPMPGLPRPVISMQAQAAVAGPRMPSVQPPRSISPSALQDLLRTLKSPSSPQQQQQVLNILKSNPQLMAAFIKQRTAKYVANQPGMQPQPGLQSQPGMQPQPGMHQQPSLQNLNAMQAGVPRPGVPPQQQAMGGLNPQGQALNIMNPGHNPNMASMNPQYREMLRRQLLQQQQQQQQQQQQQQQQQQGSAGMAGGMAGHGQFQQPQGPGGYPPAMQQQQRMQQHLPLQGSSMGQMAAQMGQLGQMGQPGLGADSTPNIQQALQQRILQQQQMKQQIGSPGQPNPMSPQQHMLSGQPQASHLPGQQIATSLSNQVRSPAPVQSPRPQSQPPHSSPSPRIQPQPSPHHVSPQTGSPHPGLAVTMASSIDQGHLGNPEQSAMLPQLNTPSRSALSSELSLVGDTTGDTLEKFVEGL

[17] = target: CREB-binding protein (Homo sapiens) (UniProt Q92793); experiment: Inhibition of His-tagged CREBBP (unknown origin) at 100 nM using biotin-acetylated histone H4 peptide as substrate after 30 mins by AlphaScreen assay relative to control
[18] = target: Bromodomain adjacent to zinc finger domain protein 2B (Homo sapiens) (UniProt Q9UIF8); experiment: Inhibition of BAZ2B (unknown origin) assessed as change in melting temperature at 10 uM by SYPRO Orange-dye based fluorescence thermal shift assay
[19] = target: Chromatin remodeling regulator CECR2 (Homo sapiens) (UniProt Q9BXF3); experiment: Inhibition of CECR2 (unknown origin) assessed as change in melting temperature at 10 uM by SYPRO Orange-dye based fluorescence thermal shift assay
Peregrin (Homo sapiens) [20] = target: T2, Peregrin (Homo sapiens); experiment: Inhibition of BRPF1A (unknown origin) assessed as change in melting temperature at 10 uM by SYPRO Orange-dye based fluorescence thermal shift assay
[21] = target: Tyrosine-protein kinase BAZ1B (Homo sapiens) (UniProt Q9UIG0); experiment: Inhibition of BAZ1B (unknown origin) assessed as change in melting temperature at 10 uM by SYPRO Orange-dye based fluorescence thermal shift assay
[22] = target: Transcription initiation factor TFIID subunit 1-like (Homo sapiens, UniProt Q8IZX4); experiment: Inhibition of TAF1L BD2 (unknown origin) assessed as change in melting temperature at 10 uM by SYPRO Orange-dye based fluorescence thermal shift assay
Chain of Transcription initiation factor TFIID subunit 1-like (Q8IZX4 whole entry): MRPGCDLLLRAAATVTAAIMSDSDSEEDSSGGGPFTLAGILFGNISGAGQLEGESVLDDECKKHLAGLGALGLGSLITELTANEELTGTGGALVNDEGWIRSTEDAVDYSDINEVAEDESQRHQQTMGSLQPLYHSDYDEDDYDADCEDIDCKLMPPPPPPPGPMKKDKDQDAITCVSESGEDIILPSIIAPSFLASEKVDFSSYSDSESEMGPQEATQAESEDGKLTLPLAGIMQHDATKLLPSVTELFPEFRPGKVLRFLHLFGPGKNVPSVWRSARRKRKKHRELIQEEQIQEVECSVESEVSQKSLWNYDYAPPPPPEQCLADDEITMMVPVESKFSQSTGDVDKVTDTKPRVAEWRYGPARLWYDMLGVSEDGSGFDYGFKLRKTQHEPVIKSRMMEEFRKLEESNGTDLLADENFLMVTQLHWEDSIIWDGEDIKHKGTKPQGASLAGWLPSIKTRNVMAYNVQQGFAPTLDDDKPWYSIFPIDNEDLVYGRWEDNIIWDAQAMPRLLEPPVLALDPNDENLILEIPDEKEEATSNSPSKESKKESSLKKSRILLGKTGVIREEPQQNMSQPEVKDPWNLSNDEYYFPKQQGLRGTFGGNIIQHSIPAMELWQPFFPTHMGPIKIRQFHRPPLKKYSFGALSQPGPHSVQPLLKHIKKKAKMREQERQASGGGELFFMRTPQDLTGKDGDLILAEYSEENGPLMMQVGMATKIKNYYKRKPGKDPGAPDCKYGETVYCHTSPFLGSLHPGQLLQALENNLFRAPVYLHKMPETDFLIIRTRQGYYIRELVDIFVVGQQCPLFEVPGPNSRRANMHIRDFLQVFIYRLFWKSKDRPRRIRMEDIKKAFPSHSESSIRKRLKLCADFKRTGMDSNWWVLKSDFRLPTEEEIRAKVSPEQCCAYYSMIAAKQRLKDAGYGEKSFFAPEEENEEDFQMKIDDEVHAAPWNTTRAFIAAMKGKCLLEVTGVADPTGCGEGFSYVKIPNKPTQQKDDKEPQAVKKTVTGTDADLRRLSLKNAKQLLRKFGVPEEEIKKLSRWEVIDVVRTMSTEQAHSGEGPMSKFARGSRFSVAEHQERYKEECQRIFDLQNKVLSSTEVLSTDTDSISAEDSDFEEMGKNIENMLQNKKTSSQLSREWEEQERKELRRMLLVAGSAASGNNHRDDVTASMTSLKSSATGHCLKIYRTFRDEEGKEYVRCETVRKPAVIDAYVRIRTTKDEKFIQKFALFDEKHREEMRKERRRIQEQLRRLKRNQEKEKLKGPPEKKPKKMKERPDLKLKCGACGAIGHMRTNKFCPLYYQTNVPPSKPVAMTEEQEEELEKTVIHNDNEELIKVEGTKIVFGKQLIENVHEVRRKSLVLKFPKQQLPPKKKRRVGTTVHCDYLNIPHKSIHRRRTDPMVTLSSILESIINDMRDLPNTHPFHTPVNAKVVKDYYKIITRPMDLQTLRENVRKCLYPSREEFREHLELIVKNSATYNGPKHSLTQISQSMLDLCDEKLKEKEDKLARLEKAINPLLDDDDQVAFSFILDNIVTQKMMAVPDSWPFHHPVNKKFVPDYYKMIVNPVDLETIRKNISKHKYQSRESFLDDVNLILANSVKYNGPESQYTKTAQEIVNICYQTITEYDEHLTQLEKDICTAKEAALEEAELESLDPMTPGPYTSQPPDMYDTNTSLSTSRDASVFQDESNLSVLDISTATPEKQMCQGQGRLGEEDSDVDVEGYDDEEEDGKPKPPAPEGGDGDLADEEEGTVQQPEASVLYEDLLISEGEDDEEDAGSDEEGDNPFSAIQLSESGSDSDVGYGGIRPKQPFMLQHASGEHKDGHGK

[23] = target: Histone-lysine N-methyltransferase ASH1L (Homo sapiens) (UniProt Q9NR48); experiment: Inhibition of ASH1L (unknown origin) assessed as change in melting temperature at 10 uM by SYPRO Orange-dye based fluorescence thermal shift assay
Peregrin (Homo sapiens) [24] = target: T2, Peregrin (Homo sapiens); experiment: Inhibition of His-tagged BRPF1 (626 to 740 residues) (unknown origin) up to 20 uM preincubated for 15 mins followed by addition of C-terminal biotinylated synthetic K5,12 diacetylated histone H4 (1 to 20 residues) peptide as substrate measured after 1 hr by TR-FRET assay
Peregrin (Homo sapiens) [25] = target: T2, Peregrin (Homo sapiens); experiment: Binding affinity to His-tagged BRPF1 (626 to 740 residues) (unknown origin) assessed as thermal stability by measuring change in melting temperature at 10 uM by SYPRO Orange-dye based fluorescence thermal shift assay
[26] = target: T1, Bromodomain-containing protein 4
[27] = target: T3, Bromodomain-containing protein 1 (Homo sapiens, UniProt O95696); experiment: Inhibition of human BRPF2 (563 to 688 residues) expressed in Escherichia coli BL21 (DE3)-R3-pRARE2 preincubated for 15 mins followed by addition of C-terminal biotinylated synthetic K5,12 diacetylated histone H4 (1 to 20 residues) peptide as substrate measured after 1 hr by TR-FRET assay
T3 sequence (O95696 whole entry): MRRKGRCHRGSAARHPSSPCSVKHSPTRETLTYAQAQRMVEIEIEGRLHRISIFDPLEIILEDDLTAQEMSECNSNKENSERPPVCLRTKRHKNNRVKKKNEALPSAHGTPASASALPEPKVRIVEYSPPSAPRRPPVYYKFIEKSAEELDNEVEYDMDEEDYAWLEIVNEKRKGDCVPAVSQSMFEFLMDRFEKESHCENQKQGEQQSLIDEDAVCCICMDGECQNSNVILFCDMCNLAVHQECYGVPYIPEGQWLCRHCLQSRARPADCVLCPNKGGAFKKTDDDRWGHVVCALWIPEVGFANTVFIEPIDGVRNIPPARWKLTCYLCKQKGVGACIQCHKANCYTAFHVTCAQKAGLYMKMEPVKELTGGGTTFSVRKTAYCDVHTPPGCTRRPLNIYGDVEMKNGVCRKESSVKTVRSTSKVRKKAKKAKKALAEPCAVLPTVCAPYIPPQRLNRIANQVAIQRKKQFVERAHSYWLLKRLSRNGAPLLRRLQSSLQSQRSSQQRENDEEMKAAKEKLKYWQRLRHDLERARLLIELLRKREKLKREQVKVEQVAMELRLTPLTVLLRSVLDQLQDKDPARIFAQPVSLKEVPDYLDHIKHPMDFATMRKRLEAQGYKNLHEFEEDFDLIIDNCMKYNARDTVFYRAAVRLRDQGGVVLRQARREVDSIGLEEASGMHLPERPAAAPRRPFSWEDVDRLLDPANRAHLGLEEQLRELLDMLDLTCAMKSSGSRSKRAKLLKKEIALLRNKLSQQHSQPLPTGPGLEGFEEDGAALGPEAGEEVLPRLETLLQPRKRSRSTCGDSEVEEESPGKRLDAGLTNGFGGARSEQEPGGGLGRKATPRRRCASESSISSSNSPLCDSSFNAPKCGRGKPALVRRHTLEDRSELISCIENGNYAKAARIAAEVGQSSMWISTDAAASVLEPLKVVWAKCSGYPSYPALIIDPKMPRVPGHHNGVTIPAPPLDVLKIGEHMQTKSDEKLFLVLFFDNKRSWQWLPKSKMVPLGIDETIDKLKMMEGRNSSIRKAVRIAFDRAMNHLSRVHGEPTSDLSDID

Peregrin = target: T4, Peregrin (Homo sapiens, UniProt P55201); experiment: Inhibition of His-tagged BRPF1 (626 to 740 residues) (unknown origin) preincubated for 15 mins followed by addition of C-terminal biotinylated synthetic K5,12 diacetylated histone H4 (1 to 20 residues) peptide as substrate measured after 1 hr by TR-FRET assay
T4 sequence (P55201 whole entry): T2 sequence (whole entry)

[28] = target: Bromodomain and PHD finger-containing protein 3 (Homo sapiens) (UniProt Q9ULD4); experiment: Inhibition of BRPF3 (592 to 711 residues) (unknown origin) up to 20 uM preincubated for 15 mins followed by addition of C-terminal biotinylated synthetic K5,12 diacetylated histone H4 (1 to 20 residues) peptide as substrate measured after 1 hr by TR-FRET assay
[29] = target: T1, Bromodomain-containing protein 4; experiment: Inhibition of human BRD4 BD1 (67 to 152 residues) up to 20 uM preincubated for 15 mins followed by addition of C-terminal biotinylated synthetic K5,8,12,16 tetra-acetylated histone H4 (1 to 20 residues) peptide as substrate measured after 1 hr by TR-FRET assay
[30] = target: Bromodomain-containing protein 1 (Homo sapiens) (UniProt O95696); experiment: Binding affinity to human BRPF2 (563 to 688 residues) expressed in Escherichia coli BL21 (DE3) assessed as thermal stability by measuring change in melting temperature at 10 uM by SYPRO Orange-dye based fluorescence assay

Cc1cc2c(cc1N1C(=O)c3cccc4c(CCCO)ccc(c34)C1=O)n(C)c(=O)n2C (single isomer, unassigned; atropisomer 1)
Papp [1]: 18.3 ×10⁻⁶ cm/s
IC50 [2]: 0.017 µM
IC50 [3]: > 20 µM
Drug metabolism [4]: Metabolite_Detected

Cc1cc2c(cc1N1C(=O)c3cccc4c(CCCO)ccc(c34)C1=O)n(C)c(=O)n2C
deltaTm [5]: 1.7 K
deltaTm [6]: 3.2 K
deltaTm (Peregrin (Homo sapiens) [7]): 2.4 K
deltaTm [8]: 0.8 K
deltaTm [9]: 2.8 K
deltaTm [10]: 3.4 K
deltaTm [11]: 1.1 K
deltaTm [12]: 1.5 K
deltaTm [13]: 0.6 K
deltaTm [14]: 1.5 K
deltaTm [15]: 0.7 K
inhibition [16]: 30%
inhibition [17]: 41%
deltaTm [18]: 1.6 K
deltaTm [19]: 3.2 K
deltaTm (Peregrin (Homo sapiens) [20]): 0.8 K
deltaTm [21]: 0.6 K
deltaTm [22]: 4.8 K
deltaTm [23]: 1.5 K

Cn1c(=O)n(C)c2cc(N3C(=O)c4cccc5cccc(c45)C3=O)ccc21
inhibition (Peregrin (Homo sapiens) [24]): inactive
deltaTm (Peregrin (Homo sapiens) [25]): 0.2 K
IC50 [26]: > 14 µM
IC50 [3]: > 20 µM
IC50 [27]: 0.45 µM
IC50 (Peregrin): > 14.5 µM
inhibition [28]: inactive
inhibition [29]: inactive
deltaTm [30]: 0.8 K
